Laboratory results reported in ChEMBL document CHEMBL4177659, “Two new dammarane-type triterpene saponins from Korean red ginseng and their anti-inflammatory effects” (Bioorg Med Chem Lett, 2017).
The source made the active and inactive calls.

Assays:
Format in all cases: functional, cell-based
[1] = system: RAW264.7; assay: Antiinflammatory activity against mouse RAW264.7 cells assessed as inhibition of LPS induced IL-6 release 10 uM preincubated for 2 hrs followed by LPS challenge measured after 24 hrs by sandwich ELISA
[2] = system: RAW264.7; assay: Antiinflammatory activity against mouse RAW264.7 cells assessed as inhibition of LPS induced TNFalpha release preincubated for 2 hrs followed by LPS challenge measured after 24 hrs by sandwich ELISA
[3] = system: RAW264.7; assay: Antiinflammatory activity against mouse RAW264.7 cells assessed as inhibition of LPS induced cox-2 expression at 10 uM preincubated for 2 hrs followed by LPS challenge measured after 24 hrs by Western blot method
[4] = system: RAW264.7; assay: Antiinflammatory activity against mouse RAW264.7 cells assessed as inhibition of LPS induced iNOS expression at 10 uM preincubated for 2 hrs followed by LPS challenge measured after 24 hrs by Western blot method
[5] = system: RAW264.7; assay: Antiinflammatory activity against mouse RAW264.7 cells assessed as inhibition of LPS induced cox-2 expression at 20 uM preincubated for 2 hrs followed by LPS challenge measured after 24 hrs by Western blot method
[6] = system: RAW264.7; assay: Antiinflammatory activity against mouse RAW264.7 cells assessed as inhibition of LPS induced iNOS expression at 20 uM preincubated for 2 hrs followed by LPS challenge measured after 24 hrs by Western blot method

Measured: Activity

CC(C)=CCC[C@@](C)(O)[C@H]1CC[C@]2(C)[C@@H]1[C@H](O)C[C@@H]1[C@@]3(C)CCC(=O)C(C)(C)[C@@H]3[C@@H](O[C@@H]3O[C@H](CO)[C@@H](O)[C@H](O)[C@H]3O)C[C@]12C
active: [1] | [2] Dose-dependent effect | [3] | [4]

Cc1ccc(-c2cc(C(F)(F)F)nn2-c2ccc(S(N)(=O)=O)cc2)cc1
active: [5] | [6]
